The test system of one series is rHRSV-mCherry. Format: cell-based, recombinant human RSV. The conditions noted are these: 48 h, HEp-2 cells. The protocol: (§1) DMSO dilutions in the same range were also used as controls. HEp-2 cells (ATCC number CCL-23) were seeded at 5×10^4 cells per well in 96-well plates the day before. Infection was carried out with 500 pfu of rHRSV-mCherry in MEM without phenol red. 2 h after infection, the medium was changed to MEM with 2% fetal calf serum and without phenol red. Compound dilutions were pre-incubated with viral suspensions for 5 min at 37° C. before addition on cell monolayers in the 96-well plates.
Fluorescence, expressed in relative fluorescence units, was measured using a spectrofluorimeter (Tecan infinite M200PRO) with excitation and emission wavelengths of 580 and 620 nm, respectively. Non-infected HEp-2 cells were used a standard for fluorescence background level.

A further series has as its system HEp-2 cells. The experiment in a line: CellTiter-Glo Luminescent cell viability assay (cytotoxicity). Format: cell-based. Conditions: 48 h. The protocol:
as §1, with “Compound M76b was solubilized at 10 mM in 100% v/v DMSO and further diluted in water to 1 mM, then serially diluted threefold in minimum essential medium (MEM) without phenol red (Gibco) to a final concentration of 5 nM. DMSO” for “DMSO”, “plates. After treatment with compound M76b in DMSO or with DMSO alone, plates were incubated at 37° C. and 5% CO2 for 48 h.” for “plates.”
Cytotoxicity was assayed with the CellTiter-Glo Luminescent cell viability assay (Promega) after 48 h of incubation with DMSO alone or threefold dilutions of compound M76 in DMSO from 1 mM to 12 μM.

Series [1] has as its target T1, N-NTD (N N-terminal region, residues 31 to 252) (Human respiratory syncytial virus A, UniProt P03418).
T1 construct: N N-terminal region (N-NTD, residues 31 to 252); made in house; host or cells: E. coli BL21(DE3)
The experiment in a line: NMR chemical shift perturbation titration (1H,15N-HSQC), dissociation constants. Format: binding, respiratory syncytial virus (RSV). The conditions noted are these: 50 μM 15N-labeled N-NTD, two-site fast exchange model, 1:1 stoichiometry. The protocol:
N-NTD samples uniformly labeled with stable isotopes for NMR measurements were produced in minimal M9 medium supplemented with 1 g/L ^15NH4Cl and 3 g/L unlabeled or ^13C-glucose. The protocols were adapted from rich medium: an initial preculture of 15 mL in LB medium was used to inoculate a 500 mL M9 culture grown to saturation, and 500 mL of fresh M9 medium were added before induction. Purification was carried out as described above and followed by a final dialysis step to exchange the sample into NMR buffer (20 mM MES pH 6.5, 250 mM NaCl, 1.5 mM TCEP). A U-^13C, ^15N, 70%-^2H labeled N-NTD sample was prepared by starting from a 100 mL preculture in LB medium, used to inoculate 1 L of unlabeled M9. […]
Chemical shift perturbation (CSP) experiments were carried out with 50 μM U-^15N labeled N-NTD on a 700 MHz Bruker Avance III spectrometer equipped with a TXI probe by adding increasing amounts of M61, M68, M72, M76 and M81 from concentrated stock solutions (25, 10 or 5 mM) in ethanol. […] Dissociation constants were determined for a given residue, assuming a two-site fast exchange model with a 1:1 stoichiometry, by fitting the chemical shift difference (δ−δfree) as a function of molar ratios in Origin 7 software (OriginLab).
Combined ^1H and ^15N CSPs were calculated from: Δδ^1H^15N=√{square root over ((δ1H−δ1H^free)^2+(δ15N−δ15N^free)^2/100)}. […]

The next series deals with T2, P-CTD/N-NTD interaction (Human respiratory syncytial virus A, UniProt P03418).
T2 construct: N N-terminal region (N-NTD, residues 31 to 252); made in house; host or cells: E. coli BL21(DE3)
The experiment in a line: Surface plasmon resonance competition assay (N-NTD binding to captured GST-P-CTD). Also on record: species or system respiratory syncytial virus (RSV). The conditions noted are these: 25° C., 20 mM TrisHCl pH 8, 150 mM NaCl, N-NTD 20 μM; read-out: Ki (inhibition of P-CTD/N-NTD interaction, SPR). The protocol: The assays were carried out at 25° C. in a buffer 20 mM TrisHCl, pH 8, 150 mM NaCl.
A goat anti-GST antibody (Biacore GST Capture Kit) was covalently coupled to a CMS sensorchip, using a Biacore 2000 instrument and the Amine Coupling Kit (GE Healthcare), reaching an immobilization density of around 10000 resonance units (RU; 1RU≈1 pg.mm-2). This surface was used to capture tightly GST-fused P-CTD to a density of 1200-1300 RU, or GST (800 RU) as a control. N-NTD (20 μM), alone or mixed and equilibrated for over 2 hours with the different inhibitor candidates (concentration range: 5-750 μM), was then injected over the GST-P-CTD and GST surfaces for one minute at a flow rate of […]. After each injection, the interaction buffer was flowed on the surface until all the N-NTD molecules dissociated (taking advantage of the transient nature of the N-NTD/P-CTD interaction). At the end of the series, the surfaces were regenerated with a 2-min 10 mM glycine-HCl (pH 1.5) wash and two 1-min washes with 0.05% SDS and 20 mM NaOH. The real-time interaction profiles were double referenced using the Scrubber 2.0 software (BioLogic Software), that is both the signals from the reference surface (with GST captured on the anti-GST antibody) and from blank experiments using the compounds alone were subtracted. The steady-state SPR responses (Req) were plotted against the compound concentration C and fitted using the BIAevaluation 4.1 software (GE Healthcare), according to the following equation:
[formula] where is the concentration of N-NTD (20 μM) and R0 the steady-state SPR response for N-NTD alone, allowing to determine the inhibition constants Ki for each compound. Isothermal Titration Calorimetry
SPR signals are proportional to the molecular weight of the analytes and therefore, given the small molecular weight of selected compounds, direct binding between N-NTD and BPdC would have too small signals on the used instrument. Instead, the inventors resorted to indirect competition assays to assess the effect of BPdC on the interaction between surface-bound P-CTD and N-NTD. The inventors first characterized by SPR the specific interactions between P-CTD in fusion with GST (GST-P-CTD) and N-NTD. GST-P-CTD was immobilized on an anti-GST antibody surface and serial dilutions of N-NTD were injected. The interaction between the two domains was transient, with a very fast dissociation rate (koff>1 s^−1) and a Kd of 30 μM. Competition experiments were then performed with the BPdC compounds. […] Both compounds carried a specific Cl substituent in ortho on the benzyl ring, but addition of another Cl atom in para position, on M76, somewhat enhanced inhibition. […] The inhibitory properties of the compounds were directly related to their affinities for N-NTD with M72<M61<M68<M81<M76.

In another series the target is T3, N-NTD (Human respiratory syncytial virus A, UniProt P03418).
T3 construct: N N-terminal region (N-NTD, residues 31 to 252); made in house; host or cells: E. coli BL21(DE3)
The experiment in a line: Isothermal titration calorimetry. Format: binding, respiratory syncytial virus (RSV). The conditions noted are these: 18° C.; for Kd: 20 mM Tris-HCl pH 8, 150 mM NaCl, 5% Ethanol, 30 μM N-NTD, read-out: Kd (ITC); for ΔH (binding enthalpy, ITC) / −TΔS (entropic contribution, ITC): 1:1 interaction model. On the procedure: ITC experiments were performed using the high precision VP-ITC system (MicroCal, GE Healthcare) and quantified with the Origin7 software provided by the manufacturer. All molecules were dissolved in 20 mM Tris-HCl, pH 8, 150 mM NaCl, 5% Ethanol and the binding enthalpies were measured by injecting the M76 or M61 solutions at 1.5 mM into calorimetric cell containing 30 μM N-NTD solution. Titrations were performed at 18° C. with 7 μl injections of M76 or M61 ligands every 350s. Heat signals were corrected for the heats of dilution and normalized to the amount of compound injected. Binding stoichiometries, enthalpy values and equilibrium dissociation constants were determined by fitting the corrected data to a 1:1 interaction model using the Origin7 software (OriginLab).
In parallel, the inventors investigated the properties of binding abilities of the di-substituted M76- and unsubstituted M61 to N-NTD by ITC. The purified N-NTD domain was loaded into the calorimeter cell and titrated with the compounds.

Each structure is given as a SMILES string. Read-outs that look alike come from different tables or passages of the source.

T2 sequence (P03418 31-252): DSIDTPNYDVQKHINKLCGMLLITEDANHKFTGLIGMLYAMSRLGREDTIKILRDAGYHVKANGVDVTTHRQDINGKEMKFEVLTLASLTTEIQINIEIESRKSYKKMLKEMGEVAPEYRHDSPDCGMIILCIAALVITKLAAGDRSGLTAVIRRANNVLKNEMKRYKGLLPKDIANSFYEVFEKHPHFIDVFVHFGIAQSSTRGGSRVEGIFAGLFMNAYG
T3 sequence (P03418 31-252): as above
T1 sequence (P03418 31-252): as above

Consider `CC(=O)OCOC(=O)c1cc(C(=O)OCOC(C)=O)n(Cc2ccc(Cl)cc2Cl)n1` [M76b], for which the relative fluorescence in the series with rHRSV-mCherry (111 μM, relative to control without M76b and DMSO) is 40%; in the series with rHRSV-mCherry (333 μM, relative to control without M76b and DMSO), “less than 20%”; in the series on rHRSV-mCherry (concentrations under 12 μM) it was “above 80%”. Moreover, the values for the cell survival result in the series on HEp-2 cells (111 μM) and in the series with HEp-2 cells (333 μM) were “more than 95%” and 25%, respectively.

`O=C(O)c1cc(C(=O)O)n(Cc2ccc(F)cc2)n1` [M72, 1-(4-fluoroBenzyl)-pyrazole-3,5-dicarboxylate]: the Kd in series [1] was 680 µM. Moreover, on P-CTD/N-NTD interaction, the Ki turned out to be 1660 ± 290 µM.

For `O=C(O)c1cc(C(=O)O)n(Cc2ccccc2)n1` [M61, 1-(Benzyl)-pyrazole-3,5-dicarboxylate], the Ki at P-CTD/N-NTD interaction turned out to be 893 ± 86 µM. On N-NTD, the Kd is 510 ± 170 µM; the “ΔH (binding enthalpy, ITC)” value was -6.42 ± 2.42 kcal/mol; the “−TΔS (entropic contribution, ITC)” value came to 2.2 ± 1.8 kcal/mol.

Regarding `O=C(O)c1cc(C(=O)O)n(Cc2ccc(Cl)cc2Cl)n1` [M76, 1-(2,4-dichloroBenzyl)-pyrazole-3,5-dicarboxylate], the Kd in series [1] was 20 µM. Further, the Ki on P-CTD/N-NTD interaction is 155 ± 25 µM. On N-NTD, the Kd amounted to 48 ± 8 µM; the “ΔH (binding enthalpy, ITC)” value was -11.0 ± 3.6 kcal/mol; the “−TΔS (entropic contribution, ITC)” value is 5.4 ± 3.8 kcal/mol.

As to `O=C(O)c1cc(C(=O)O)n(Cc2ccc(Br)cc2)n1` [M68, 1-(4-bromoBenzyl)-pyrazole-3,5-dicarboxylate], the Ki at P-CTD/N-NTD interaction is 610 ± 82 µM.

`O=C(O)c1cc(C(=O)O)n(Cc2ccccc2Cl)n1` [M81, 1-(2-chloroBenzyl)-pyrazole-3,5-dicarboxylate]: the Ki at P-CTD/N-NTD interaction was 247 ± 39 µM.
